According to patent US6869625B2, “Method of treating diabetes using plant argyrolobium roseum extract, and a process for the isolation of extract from the said plant” (Council of Scientific and Industrial Research, priority 2001, dated 2005):

System: normal, 18 h fasting, glucose loaded & streptozotocin induced hyperglycaemic rats
Test: hypoglycaemic activity (blood sugar) in rats after oral dosing
Type: in vivo
Method: 1 kg of A. roseum (whole plant) is shade dried and powdered. The powdered plant material was extracted with ethyl alcohol (5 litres) for 20 hours. The alcohol extract was vacuum dried. The yield was 91 gms. The dried alcoholic extract was macerated successively with hexane and chloroform to give 8.2 gms. and 39.3 gms. of the extracts respectively. A flavonoid glycoside (230 mgs) was isolated from the chloroform extract by repeated column chromatography over silica gel of mesh size 60-120 micron. […] The onset of effect within ½ h and the effect lasted for more than five hours. The fall of blood sugar recorded with above dose was 26 mg/dl (n=24) as compared to fall of 17 & 23 mg/dl recorded with tolbutamide, 50 mg/kg p.o. (n=9) and glipizide, 0.5 mg/kg p.o. (n=8) respectively in 18 h fasting rats.

Row | SMILES | fall of blood sugar (0.5 mg/kg p.o., 18 h fasting rats (n=8)) [mg/dL] | fall of blood sugar (50 mg/kg p.o., 18 h fasting rats (n=9)) [mg/dL]
1 | Cc1cnc(C(=O)NCCc2ccc(S(=O)(=O)NC(=O)NC3CCCCC3)cc2)cn1 [glipizide] | 23 | 
2 | CCCCNC(=O)NS(=O)(=O)c1ccc(C)cc1 [tolbutamide] |  | 17
